Experimental data: patent publication US20250205158A1, “BIODEGRADABLE LIPIDS AND FORMULATIONS FOR DELIVERY OF MRNA” (Massachusetts Institute of Technology, priority 2023, published 2025)
“Also recorded” adds a separate entry of the source. Where two headings read alike, the source gives them in different places.

Assays:
[1] = test system: Lentiviruses pseudotyped with the B.1.617.2 spike protein; format: cell-based; conditions: 293T-ACE2 cells, GFP reporter
mice [2] = format: in vivo, BALB/cJ and C57B1/6J mice; conditions: HA mRNA, dose=1 μg, day 35
mice [3] = assay: Germinal center response after HA mRNA LNP prime dose; format: in vivo, BALB/cJ mice; conditions: LDLN 8 days following a prime dose
[4] = test system: influenza A/Tasmania/503/2020 virus; assay: Hemagglutination inhibition (HAI) assay, neutralizing antibody titers after HA mRNA vaccination; format: in vivo, BALB/cJ mice
Method: To test this, a dose-response vaccination experiment ranging from […] was performed in female BALB/cJ mice. Neutralizing antibody titers were evaluated using the hemagglutination inhibition (HAI) assay. HAI titers are strongly correlated with vaccine protection and the assay is an FDA approved method for testing influenza vaccine efficacy^38,39 In agreement with the binding antibody titers, higher neutralizing […] were measured across all three tested doses: SM-102 only gave detectable neutralizing immunity at a 1 μg dose, while AMG1541 gave neutralizing immunity with as little was 10 ng of mRNA (FIG. 13H). Not only was AMG1541 able to generate neutralizing immunity at a very low dose, the binding and neutralizing antibody titers were equivalent in mice vaccinated with AMG1541 at a […] as those with SM-102 at a […] (FIG. 13H).
HAI Assay. HAI assays were performed by IBT bioservices. Viral titers were standardized by defining one HA unit as the amount of inactivated influenza A/Tasmania/503/2020 virus required to completely hemagglutinate an equal volume of 1% turkey red blood cells (TRBCs) (Lampire). Serum was heat inactivated at 56° C. then receptor destroying enzyme (RDE) (DENKA) was added to the serum and incubated at 37° C. for 20 hrs. RDE was then deactivated at 56° C. for 60 mins. Serum samples were then serially diluted in DPBS and 25 μL of diluted serum was added to a 96-well V bottom plate. Subsequently, four HA units of inactivated virus in 25 μL of DPBS were added to the diluted serum and incubated for 30 mins. at RT. 50 μL of a 1% (4×10^7 cells/mL) solution of turkey red blood cells (Lampire) was then added to the serum and virus mixture.

mice [5] = assay: IFN-γ ELISpot and supernatant cytokines of peptide-stimulated splenocytes after HA mRNA vaccination; format: in vivo, BALB/cJ and C57B1/6J mice
Method: Further experiments to evaluate the dose-sparing potential of AMG1541 were performed for influenza vaccination.^34,35 The immunogenicity of AMG1541 was compared to the clinical benchmark SM-102 by formulating each into LNPs containing hemagglutinin (HA) (A/Tasmania/503/2020 H3N2) mRNA. BALB/cJ mice were vaccinated with […] of these mRNA LNPs and the quality of humoral and cellular immunity following vaccination was evaluated. Enhancing each component of immunity contributes to improving vaccine protection—humoral immunity provides protection against initial infection while cellular immunity improves the clearance of breakthrough infections. […] Male and female mice vaccinated with AMG1541 had 15.8- and 6.8-fold higher endpoint titers, respectively (FIG. 13C). […] Serum cytokines were examined 6 hours after the boost dose to determine whether the enhanced immunogenicity of AMG1541 also led to increased systemic inflammation (FIGS. 20A-20C). […]
IFN-γ ELISpot. […] Cells were then pelleted, resuspended in PBS+1% BSA, and counted using a countess 3 automated cell counter (ThermoFisher). […]
Luminex. […] The supernatants from the stimulated splenocytes used for the ELISpot assay were analyzed using Eve Technologies' Mouse High Sensitivity 18-Plex Discovery Assay® (MilliporeSigma, Burlington, Massachusetts, USA) according to the manufacturer's protocol. […]

BALB/c mice = conditions: spike mRNA LNPs on day 0 and day 21, serum day 35
Method: Briefly, 6-8 week old BALB/c mice were vaccinated with 1 g of mRNA LNPs on day 0 and on day 21, and serum was collected on day 35 to characterize the antibody response to vaccination.
Immunization studies. […] All LNPs were injected IM in the quadricep with an injection volume of 50 μL with the doses specified in the main text. All vaccination experiments followed a prime-boost dosing regimen with doses given on day 0 and day 21. On day 35, mice were sacrificed, and blood was collected via cardiac puncture and their spleens were collected for further characterization.
Binding antibody ELISAs. […] Plates were coated overnight at 4° C. by adding 100 μL of a 1 μg/mL antigen solution in 100 mM carbonate buffer, pH 9.6 to each well. The coated plates were then washed with ELISA wash buffer (Biolegend) and blocked for 1 hr. at room temperature (RT) with 150 μL of 1% BSA in PBS. The plate was then washed again, and 100 μL of serially diluted serum samples were then added to the plate and incubated at RT for 1 hr. Next, the plate was washed and the secondary goat anti-mouse IgG, HRP antibody (ThermoFisher) was diluted 1:3,000. 100 μL of this solution added to each well an incubated at RT for 1 hr. After incubation, the plate was washed and 100 μL of TMB chromogen solution (ThermoFisher) was added to each well and incubated for 30 mins. Finally, the HRP reaction was stopped by the addition of 100 μL of 0.5 M H2SO4. The absorbance of each well was immediately read at 450 nm with 600 nm as a reference using an Infinite M200 Pro (Tecan) plate reader. The resultant data were then fit with a 4-PL sigmodal curve and the endpoint titers were taken as the point at which this curve crossed four times the absorbance of the blank wells.

## CCCCCC/C=C\CCCC(=O)OCC(O)CN1CCN(CC(O)COC(=O)CCC/C=C\CCCCCC)CCN(CC(O)COC(=O)CCC/C=C\CCCCCC)CCN(CC(O)COC(=O)CCC/C=C\CCCCCC)CCN(CC(O)COC(=O)CCC/C=C\CCCCCC)CCN(CC(O)COC(=O)CCC/C=C\CCCCCC)CC1 (stereo not drawn) [AMG1541]
[1]
  fold higher infection inhibition IC50 than AMG1041: approximately 2 fold
Mice [2]; female BALB/cJ mice
  fold higher binding antibody endpoint titers than SM-102: 6.8 fold
Mice [2]; female C57B1/6J mice
  fold higher binding antibody titers than SM-102: 5.8 fold
Mice [2]; male BALB/cJ mice
  fold higher binding antibody endpoint titers than SM-102: 15.8 fold
Mice [3]
  fold higher Ag+ GC B cells than SM-102 treated mice: 6.0 fold
  fold more Fas+GL7+ GC B cells than SM-102 treated mice: 4.8 fold
[4]; equivalent vaccine dose
  fold higher neutralizing titers than SM-102: 13 fold
[4]; female BALB/cJ mice, dose-response vaccination
  lowest mRNA dose giving neutralizing immunity: 10 ng
[4]; mouse, in vivo
  fold lower dose giving similar protective immunity to SM-102: 100 fold
Mice [5]; BALB/cJ mice, HA mRNA, dose=1 μg
  cytokines in media from splenocytes stimulated with MHC-binding peptides: significant upregulation of IL-4, and IL-5 in both male and female mice and IL-10 in female mice
Mice [5]; IFN-γ ELISpot, MHC-I stimulated splenocytes, female C57B1/6J mice
  fold more Spot Forming Units (SFU) relative to SM-102: 6.6 fold
BALB/c mice
  antibody titers after vaccination: high antibody titers; also recorded: highest antibody titers
